This experiment deals with A2780 cells. Put plainly: Lentiviral transduction of adherent A2780 cells, Luciferase-expressing lentivirus, luminescence (RLU). The experiment is classed as cell-based, human. How it is done: Human ovarian carcinoma cells A2780 (Sigma Aldrich) and human lung adenocarcinoma cells NCl H1838 (ATTC) were grown in RPMI 1640 medium supplemented with 10% (vol/vol) fetal calf serum (FCS; Biochrom) and 2 mM L-glutamine (PAN Biotech).
The lentiviral transduction vectors p-Ubic-Luc2-IRES-Puro and p-CMV-copGFP-IRES-Puro allow expression of Luciferase driven by Ubic promoter or copGFP by CMV promoter, respectively. Replication-defective lentiviral particles were produced by transient co-transduction of HEK293-TN cells in a T75 flask with 10 μg of packaging plasmids pMDL, pVSV-G, pRev (Roche) and 2 μg of transduction vector using Lipofectamine 2000 (Life Technologies) as transduction reagent according to the manufacturer's instructions. […]
To quantify total viral transgene expression by Luciferase, 100 μl Steady-Glo reagent (Promega) was added to the cells 3 days after viral transduction. The plate with the cells was put into a Tecan Infinite M200 plate reader and shaken for 30 seconds. After incubation for 10 minutes at room temperature, luminescence signal was measured by the plate reader. […]
As controls virus only (with H2O instead of adjuvant), or […] Polybrene was added to the wells before transduction. […] Three days post transduction the efficiency of transduction was assessed by measuring luciferase activity on a plate reader. Results are presented in relative luminescence units (RLU). […]

For the substance Protamine sulfate, the “increase of total transgene expression compared to virus only” value by setting is: (5 μg/ml Protamine sulfate alone) 1.14 fold; (40 μg/ml Protamine sulfate alone) 2.08 fold.

The values are drawn from patent US20220088225A1, “VIRAL TRANSDUCTION USING POLOXAMINES” (SIRION Biotech GmbH, priority 2018, published 2022).
